Results: ChEMBL document CHEMBL3046881, “Precocious Metamorphosis-Inducing Activity of 1-Substituted Imidazoles” (1996)

Experiments:
Format in all cases: functional
Bombyx mori [1] = experiment: Induction of precocious metamorphosis-inducing activity against fourth-instar larvae of Bombyx mori Shunrei x shogetsu compound treated topically
Bombyx mori [2] = experiment: Induction of precocious metamorphosis-inducing activity against fourth-instar larvae of Bombyx mori Shunrei x shogetsu at >80 ug treated topically
Bombyx mori [3] = experiment: Induction of precocious metamorphosis-inducing activity against fourth-instar larvae of Bombyx mori Shunrei x shogetsu at 40 ug treated topically in presence of 10 ug methoprene
Bombyx mori [4] = experiment: Induction of precocious metamorphosis-inducing activity against fourth-instar larvae of Bombyx mori Shunrei x shogetsu at 40 ug treated topically
Bombyx mori [5] = experiment: Induction of precocious metamorphosis-inducing activity against fourth-instar larvae of Bombyx mori Shunrei x shogetsu at 40 ug treated topically in presence of 0.01 ug tebufenozide
Bombyx mori [6] = experiment: Induction of precocious metamorphosis-inducing activity against fourth-instar larvae of Bombyx mori Shunrei x shogetsu at >40 ug treated topically
Bombyx mori [7] = experiment: Induction of precocious metamorphosis-inducing activity against fourth-instar larvae of Bombyx mori Shunrei x shogetsu at >160 ug treated topically

Row | SMILES | ED50 (Bombyx mori [1]) [µg] | Activity (Bombyx mori [2]) [%] | further results
1 | CC(C)(C)c1ccc(OCCCn2ccnc2)cc1 | >80 | 20 | 
2 | CCc1ccc(OCCCn2ccnc2)cc1 | 17 |  | 
3 | CCCCCCCCCCOc1ccc(-n2ccnc2)cc1 | >80 | 33 | 
4 | c1ccc(OCCCn2ccnc2)cc1 | >80 | 0 | 
5 | CCCCCCOc1ccc(OCCCn2ccnc2)cc1 | 36 |  | 
6 | Clc1ccc(OCCCn2ccnc2)cc1 | >80 | 11 | 
7 | CCc1ccccc1OCCCn1ccnc1 | >80 | 0 | 
8 | CCCCCCCCCCCCn1ccnc1 | 15 |  | Activity (Bombyx mori [3]): 0%; Activity (Bombyx mori [4]): 100%; Activity (Bombyx mori [5]): 0%
9 | CCCCOc1ccc(-n2ccnc2)cc1 | >80 | 0 | 
10 | CCC(C)c1ccc(OCCCn2ccnc2)cc1 (stereo not given) | 91 |  | 
11 | CC(C)=CCCC(C)CCn1ccnc1 (stereo not given) | >40 |  | Activity (Bombyx mori [6]): 20%
12 | CCCCOc1ccc(OCCCn2ccnc2)cc1 | 27 |  | 
13 | CCCCCCCCn1ccnc1 | >40 |  | Activity (Bombyx mori [6]): 0%
14 | CCCCCCCCCCCCCCn1ccnc1 | 30 |  | 
15 | CCCCCCOc1ccc(-n2ccnc2)cc1 | 63 |  | 
16 | c1ccc(Oc2ccc(OCCCn3ccnc3)cc2)cc1 | >80 | 0 | 
17 | c1ccc(Cn2ccnc2)cc1 [BENZYLIMIDAZOLE] | >80 | 0 | 
18 | c1ccc(CCn2ccnc2)cc1 | >80 | 0 | 
19 | CCCCCCCCOc1ccc(-n2ccnc2)cc1 | 40 |  | 
20 | c1ccc(COc2ccc(OCCCn3ccnc3)cc2)cc1 | >160 |  | Activity (Bombyx mori [7]): 0%
21 | CCCCCCCCCCn1ccnc1 | 18 |  | 
22 | CCc1cccc(OCCCn2ccnc2)c1 | 36 |  | 
23 | CCc1ccc(OCCCCn2ccnc2)cc1 | >160 |  | Activity (Bombyx mori [7]): 20%
24 | CCc1ccc(OCCn2ccnc2)cc1 | >160 |  | Activity (Bombyx mori [7]): 11%
25 | CCCc1ccc(OCCCn2ccnc2)cc1 | 16 |  | Activity (Bombyx mori [3]): 0%; Activity (Bombyx mori [4]): 100%; Activity (Bombyx mori [5]): 0%
